# From EP0260606A2, “Medicament for curing neurotic disturbance or disorder comprising sialocylglycerolipid” (MECT CORPORATION, priority 1986, dated 1988)
# Several values for one entry are separate records, joined by “and”; a condition that tells them apart may be missing. Identical values can stand only once.
# What was measured:
# [1] = test system: neuroblastoma cell Neuro2a; assay: Effect on the neuroblastoma cell Neuro2a (formation and growth of axis-cylinder process); type: cell-based; settings: for Length of Axis-cylinder Process / Number of Axis-cylinder Process: average ± S.E.
# Experimental: The nervous cell used in the test was neuroblastoma cell Neuro2a which is readily available and can be cultured in a relatively simple manner.
# Neuro2a was floated on a culture medium containing fetal cattle serum (hereinafter referred to as FCS), the culture medium consisting of 90% of Dubecco's Modified Eagle's Medium (hereinafter referred to as MEM) and l0% of FCS and added with l00 U/ml of penicillin G and l00 µg/ml of streptomycin sulfate, and cultured in a carbon dioxide cultivator at 37°C in an air containing 5% of carbon dioxide. The containers used were 60 mm polystyrene dishes, and each of the containers was incubated with l to 2 × l0⁴ cells followed by culturing for 48 hours prior to the test. […] After the lapse of 24 hours and 48 hours, the increase in cells formed with axis-cylinder process, the increase in number of axis-cylinder processes and the elongation of the length of the axis-cylinder process were measured.
# The test was conducted while using three dishes for each concentration of each test material.
# [2] = test system: rat having its nigral depaminergic neuron destroyed; assay: Methamphethamine-induced rotational movement after 6-hydroxydopamine lesion and fetal dopaminergic cell transplantation; type: in vivo; settings: for Average of Rotational Movement of Rats (Average + S.D.): group average, 30 mg/kg; for Number of Rotational Movement of Rats: individual rat, 30 mg/kg every day for two weeks from transplantation, listed as Ganglioside GM1, 30 mg/kg
# Description: The nigral dopaminergic neuron of the brain of a rat was chemically destroyed by injecting a very small quantity of 6-hydroxydopamine to cause motor disturbance.
# After the lapse of two weeks, a fetal brain dopaminergic cell was transplanted on the Nucleus caudatus of the rat brain to try to remedy the motor disturbance.
# The nigral depaminergic neuron at the left side of the brain of a female Wister family rat aged 4-weeks (Body Weight: l00 g) was destroyed by injecting a very small quantity of 6-hydroxydopamine.
# After two weeks from the destruction by the administration of the drug, portions of the […] containing dopamin cells (i.e. substantia nigra and the Tegmentum at the abdomen side) were extracted from the fetal rat brain of a fetal rat of l4 to l7 days age, cut finely, and treated with trypsin. Then, the extracted tissues were incubated at 37°C for 30 minutes, and the tissues were subjected to pipetting to form a suspension. 5 µl each of the suspensions were transplanted on two sites of the Nucleus caudatus of the destructed side, the total of l0 µl (containing about l0⁵ cells) being transplanted.
# The rotational movements caused by administration of methamphethamine were examined at the time point before 2 weeks of the transplantation (- 2W), at the time point before one week of the transplantation (- lW) and at the time point after two weeks of the transplantation (2W). The number of rotational movements within one minute were counted at l0 minute intervals after six administrations of methamphethamine, and the total number of rotational movements counted for the six times was averaged to find the mean rotational movement. As controls, the numbers of rotational movements of the rats administered, respectively, with a ganglioside mixture and GM₁ ganglioside were counted.
# [3] = - 1W (before transplantation and dosing)
# [4] = - 2W (before transplantation and dosing)
substance,measurement,setting,value
(NAcNeu(α2-8) NAcNeu(α2-3))-Gal(ßl-3)GalNAc(ßl-4)(NAcNeu(α2-8)NAcNeu(α-2-3))-Gal(ßl-4)Glc(ßl-l) [GQ1b],Number of Cells Formed with Axis-cylinder Process,"[1]; 24 hours, 0.01 µg/ml",174
same,Ratio of Cells Formed with Axis-cylinder Process,"[1]; 24 hours, 0.01 µg/ml",51.8%
same,Total Number of Cells,"[1]; 24 hours, 0.01 µg/ml",336
same,Length of Axis-cylinder Process,"[1]; 24 hours, 0.01 µg/ml",88.5 ± 5.00 µm/cell
same,Number of Axis-cylinder Process,"[1]; 24 hours, 0.01 µg/ml",1.3 ± 0.05 per cell
same,Number of Cells Formed with Axis-cylinder Process,"[1]; 24 hours, 0.1 µg/ml",159
same,Ratio of Cells Formed with Axis-cylinder Process,"[1]; 24 hours, 0.1 µg/ml",58.0%
same,Total Number of Cells,"[1]; 24 hours, 0.1 µg/ml",331
same,Length of Axis-cylinder Process,"[1]; 24 hours, 0.1 µg/ml",86.0 ± 4.72 µm/cell
same,Number of Axis-cylinder Process,"[1]; 24 hours, 0.1 µg/ml",1.3 ± 0.04 per cell
same,Number of Cells Formed with Axis-cylinder Process,"[1]; 24 hours, 1 µg/ml",157
same,Ratio of Cells Formed with Axis-cylinder Process,"[1]; 24 hours, 1 µg/ml",51.0%
same,Total Number of Cells,"[1]; 24 hours, 1 µg/ml",308
same,Length of Axis-cylinder Process,"[1]; 24 hours, 1 µg/ml",97.6 ± 4.95 µm/cell
same,Number of Axis-cylinder Process,"[1]; 24 hours, 1 µg/ml",1.4 ± 0.05 per cell
same,Number of Cells Formed with Axis-cylinder Process,"[1]; 24 hours, 10 µg/ml",205
same,Ratio of Cells Formed with Axis-cylinder Process,"[1]; 24 hours, 10 µg/ml",63.9%
same,Total Number of Cells,"[1]; 24 hours, 10 µg/ml",321
same,Length of Axis-cylinder Process,"[1]; 24 hours, 10 µg/ml",114.9 ± 5.98 µm/cell
same,Number of Axis-cylinder Process,"[1]; 24 hours, 10 µg/ml",1.3 ± 0.06 per cell
same,Number of Cells Formed with Axis-cylinder Process,"[1]; 24 hours, 100 µg/ml",U.C.
same,Total Number of Cells,"[1]; 24 hours, 100 µg/ml",U.C.
same,Length of Axis-cylinder Process,"[1]; 24 hours, 100 µg/ml",U.C.
same,Number of Axis-cylinder Process,"[1]; 24 hours, 100 µg/ml",U.C.
same,Number of Cells Formed with Axis-cylinder Process,"[1]; 48 hours, 0.01 µg/ml",158
same,Ratio of Cells Formed with Axis-cylinder Process,"[1]; 48 hours, 0.01 µg/ml",42.6%
same,Total Number of Cells,"[1]; 48 hours, 0.01 µg/ml",371
same,Length of Axis-cylinder Process,"[1]; 48 hours, 0.01 µg/ml",100.4 ± 5.76 µm/cell
same,Number of Axis-cylinder Process,"[1]; 48 hours, 0.01 µg/ml",1.5 ± 0.06 per cell
same,Number of Cells Formed with Axis-cylinder Process,"[1]; 48 hours, 0.1 µg/ml",153
same,Ratio of Cells Formed with Axis-cylinder Process,"[1]; 48 hours, 0.1 µg/ml",44.1%
same,Total Number of Cells,"[1]; 48 hours, 0.1 µg/ml",347
same,Length of Axis-cylinder Process,"[1]; 48 hours, 0.1 µg/ml",90.4 ± 6.06 µm/cell
same,Number of Axis-cylinder Process,"[1]; 48 hours, 0.1 µg/ml",1.2 ± 0.04 per cell
same,Number of Cells Formed with Axis-cylinder Process,"[1]; 48 hours, 1 µg/ml",182
same,Ratio of Cells Formed with Axis-cylinder Process,"[1]; 48 hours, 1 µg/ml",47.4%
same,Total Number of Cells,"[1]; 48 hours, 1 µg/ml",384
same,Length of Axis-cylinder Process,"[1]; 48 hours, 1 µg/ml",106.5 ± 6.40 µm/cell
same,Number of Axis-cylinder Process,"[1]; 48 hours, 1 µg/ml",1.3 ± 0.04 per cell
same,Number of Cells Formed with Axis-cylinder Process,"[1]; 48 hours, 10 µg/ml",214
same,Ratio of Cells Formed with Axis-cylinder Process,"[1]; 48 hours, 10 µg/ml",61.8%
same,Total Number of Cells,"[1]; 48 hours, 10 µg/ml",346
same,Length of Axis-cylinder Process,"[1]; 48 hours, 10 µg/ml",122.5 ± 6.99 µm/cell
same,Number of Axis-cylinder Process,"[1]; 48 hours, 10 µg/ml",1.3 ± 0.04 per cell
same,Number of Cells Formed with Axis-cylinder Process,"[1]; 48 hours, 100 µg/ml",U.C.
same,Total Number of Cells,"[1]; 48 hours, 100 µg/ml",U.C.
same,Length of Axis-cylinder Process,"[1]; 48 hours, 100 µg/ml",U.C.
same,Number of Axis-cylinder Process,"[1]; 48 hours, 100 µg/ml",U.C.
"Gal, (ßl-3) GalNAc (ßl-4) NAcNeu(α2-3))Gal(ßl-4)Glc(ßl-l)Ceramide [GM1]",Average of Rotational Movement of Rats (Average + S.D.),[2]; 2W after transplantation,7.6+3.6
same,Average of Rotational Movement of Rats (Average + S.D.),[2]; [3],9.8+4.4
same,Average of Rotational Movement of Rats (Average + S.D.),[2]; [4],9.0+4.1
same,Number of Rotational Movement of Rats,[2]; 2W after transplantation,3.7 and 10.9 and 8.2
same,Number of Rotational Movement of Rats,[2]; [3],14.8 and 6.9 and 7.6
same,Number of Rotational Movement of Rats,[2]; [4],12.5 and 10.1 and 4.5
same,Number of Cells Formed with Axis-cylinder Process,"[1]; 24 hours, 0.01 µg/ml",145
same,Ratio of Cells Formed with Axis-cylinder Process,"[1]; 24 hours, 0.01 µg/ml",43.4%
same,Total Number of Cells,"[1]; 24 hours, 0.01 µg/ml",334
same,Length of Axis-cylinder Process,"[1]; 24 hours, 0.01 µg/ml",94.9 ± 6.64 µm/cell
same,Number of Axis-cylinder Process,"[1]; 24 hours, 0.01 µg/ml",1.4 ± 0.05 per cell
same,Number of Cells Formed with Axis-cylinder Process,"[1]; 24 hours, 0.1 µg/ml",142
same,Ratio of Cells Formed with Axis-cylinder Process,"[1]; 24 hours, 0.1 µg/ml",47.8%
same,Total Number of Cells,"[1]; 24 hours, 0.1 µg/ml",297
same,Length of Axis-cylinder Process,"[1]; 24 hours, 0.1 µg/ml",101.1 ± 5.09 µm/cell
same,Number of Axis-cylinder Process,"[1]; 24 hours, 0.1 µg/ml",1.4 ± 0.06 per cell
same,Number of Cells Formed with Axis-cylinder Process,"[1]; 24 hours, 1 µg/ml",140
same,Ratio of Cells Formed with Axis-cylinder Process,"[1]; 24 hours, 1 µg/ml",42.2%
same,Total Number of Cells,"[1]; 24 hours, 1 µg/ml",332
same,Length of Axis-cylinder Process,"[1]; 24 hours, 1 µg/ml",109.7 ± 6.44 µm/cell
same,Number of Axis-cylinder Process,"[1]; 24 hours, 1 µg/ml",1.4 ± 0.06 per cell
same,Number of Cells Formed with Axis-cylinder Process,"[1]; 24 hours, 10 µg/ml",149
same,Ratio of Cells Formed with Axis-cylinder Process,"[1]; 24 hours, 10 µg/ml",45.8%
same,Total Number of Cells,"[1]; 24 hours, 10 µg/ml",325
same,Length of Axis-cylinder Process,"[1]; 24 hours, 10 µg/ml",89.3± 4.77 µm/cell
same,Number of Axis-cylinder Process,"[1]; 24 hours, 10 µg/ml",1.4 ± 0.05 per cell
same,Number of Cells Formed with Axis-cylinder Process,"[1]; 24 hours, 100 µg/ml",172
same,Ratio of Cells Formed with Axis-cylinder Process,"[1]; 24 hours, 100 µg/ml",55.5%
same,Total Number of Cells,"[1]; 24 hours, 100 µg/ml",310
same,Length of Axis-cylinder Process,"[1]; 24 hours, 100 µg/ml",90.5 ± 3.88 µm/cell
same,Number of Axis-cylinder Process,"[1]; 24 hours, 100 µg/ml",1.8 ± 0.05 per cell
same,Number of Cells Formed with Axis-cylinder Process,"[1]; 48 hours, 0.01 µg/ml",194
same,Ratio of Cells Formed with Axis-cylinder Process,"[1]; 48 hours, 0.01 µg/ml",58.3%
same,Total Number of Cells,"[1]; 48 hours, 0.01 µg/ml",333
same,Length of Axis-cylinder Process,"[1]; 48 hours, 0.01 µg/ml",93.7 ± 5.07 µm/cell
same,Number of Axis-cylinder Process,"[1]; 48 hours, 0.01 µg/ml",1.4 ± 0.05 per cell
same,Number of Cells Formed with Axis-cylinder Process,"[1]; 48 hours, 0.1 µg/ml",156
same,Ratio of Cells Formed with Axis-cylinder Process,"[1]; 48 hours, 0.1 µg/ml",44.7%
same,Total Number of Cells,"[1]; 48 hours, 0.1 µg/ml",349
same,Length of Axis-cylinder Process,"[1]; 48 hours, 0.1 µg/ml",108.8 ± 5.97 µm/cell
same,Number of Axis-cylinder Process,"[1]; 48 hours, 0.1 µg/ml",1.4 ± 0.06 per cell
same,Number of Cells Formed with Axis-cylinder Process,"[1]; 48 hours, 1 µg/ml",211
same,Ratio of Cells Formed with Axis-cylinder Process,"[1]; 48 hours, 1 µg/ml",59.9%
same,Total Number of Cells,"[1]; 48 hours, 1 µg/ml",352
same,Length of Axis-cylinder Process,"[1]; 48 hours, 1 µg/ml",109.2 ± 6.09 µm/cell
same,Number of Axis-cylinder Process,"[1]; 48 hours, 1 µg/ml",1.3 ± 0.04 per cell
same,Number of Cells Formed with Axis-cylinder Process,"[1]; 48 hours, 10 µg/ml",205
same,Ratio of Cells Formed with Axis-cylinder Process,"[1]; 48 hours, 10 µg/ml",62.1%
same,Total Number of Cells,"[1]; 48 hours, 10 µg/ml",330
same,Length of Axis-cylinder Process,"[1]; 48 hours, 10 µg/ml",113.8 ± 5.49 µm/cell
same,Number of Axis-cylinder Process,"[1]; 48 hours, 10 µg/ml",1.3 ± 0.04 per cell
same,Number of Cells Formed with Axis-cylinder Process,"[1]; 48 hours, 100 µg/ml",193
same,Ratio of Cells Formed with Axis-cylinder Process,"[1]; 48 hours, 100 µg/ml",60.9%
same,Total Number of Cells,"[1]; 48 hours, 100 µg/ml",317
same,Length of Axis-cylinder Process,"[1]; 48 hours, 100 µg/ml",98.9 ± 5.22 µm/cell
same,Number of Axis-cylinder Process,"[1]; 48 hours, 100 µg/ml",1.5 ± 0.05 per cell
